Source: a melting point compilation (Tetko et al.; mined from patent text by program, amines drawn as free bases though some values may be those of a salt)

SMILES	melting point
COc1ccc(Cn2c(=O)ccc3c(C)nc(N4CCC[C@H]4CO)nc32)cc1Cl	152 to 153 °C
Cc1sc(N2CCOCC2)nc1CCOc1ccc(C[C@H](Nc2ccccc2C(=O)c2ccccc2)C(=O)O)cc1	148 to 151 °C
O=c1c2c(OCC3CO3)cc(OCC3CO3)cc2oc2ccc3ccccc3c12 (stereo not drawn)	198 to 200 °C
COC(=O)c1ccc(NC(C)=O)cc1O	148 to 151 °C
CCCCN(CCCC)c1nc(Nc2cccc3c2C(=O)c2ccccc2C3=O)nc(N(CCCC)CCCC)n1	128 to 133 °C
COC(=O)c1ccc(Cc2ccc(NC(C)=O)cc2)cn1	175 to 177 °C
CCCCC(OCC(=O)c1ccccc1)C(F)CC (stereo not drawn)	39.6 to 40.1 °C
O=C(c1ccccc1)C(Cl)Cn1cnc(Cl)c1 (stereo not drawn)	106 to 110 °C
COc1ccc(-n2nc(N3CCN(C(N)=O)CC3)c3ccccc32)cc1	155 to 157 °C
CCc1cccc(C)c1COc1cc(C(=O)N(C)C)cc2c1nc(C)n2C	161 to 162 °C
O=C(CCc1ccc(F)cc1)c1ccc(C(F)(F)F)cc1	66 to 67 °C
Cc1cc2c(cc1N1CCCC1)OC(=O)C2C (stereo not drawn)	67 to 69 °C
Nc1c(F)cncc1F	99 to 101 °C
Cc1c(C)c2c(c(C)c1NC(=O)CC(C)(C)C)C(c1ccc(C3OCCO3)cc1)CO2 (stereo not drawn)	193 to 194 °C
COc1ccc(Cl)c(N)c1C(=O)CCl	112 °C
CCCCOC(=O)COc1cc(F)c([N+](=O)[O-])cc1[N+](=O)[O-]	113 to 115 °C
COc1ccc2cc(COC(C)(C(=O)O)C(F)(F)F)ccc2c1 (stereo not drawn)	117 to 119 °C
C[C@H](CO)Nc1ccc([N+](=O)[O-])cc1F	128 to 130 °C
CN1CCCC1CCOc1ccc(-c2nnc(CSCCOc3ccccc3)o2)cc1 (stereo not drawn)	46 to 50 °C
CC(=O)c1cccc2c1[C@@H](NC(=O)c1ccc(F)cc1)[C@H](O)C(C)(C)O2 (relative stereo)	175 °C
C#CC(Cn1cnnn1)n1nnc2cc3c(=O)n(C4CC4)nnc3cc2c1=O (stereo not drawn)	> 195 °C
O=C(O)c1ccc(-c2ccc(C(=O)O)cn2)nc1	> 400 °C
N#Cc1ccc(-c2cn(-c3ccc(Br)cc3)c(C(=O)O)c2C(=O)O)cc1	217 to 221 °C
O=C(NC(Cc1ccccc1)C(=O)O)c1ccc(-c2ccccc2OC2OC(CO)C(O)C(O)C2O)cc1 (stereo not drawn)	116 to 119 °C
Cc1cc(C(O)(C(F)(F)F)C(F)(F)F)cc(C)c1NCC(N)=O	205 to 207 °C

SMILES	melting point
C#CCOCCn1c(CN2CCCN(C)CC2)nc2ccccc21	133 to 136 °C
OC1(c2cccc3[nH]ccc23)CCN(CCOc2ccccc2)CC1	168 °C
CCOC(=O)C=Cc1nc(-c2ccc(=O)n(C(C)C)n2)c(-c2ccccc2)nc1N	233 to 236 °C
Nc1cccc2c(Br)cccc12	65 to 66 °C
COC(=O)CN1CCCC(Nc2ncc3ncnc(Nc4cccc(Br)c4)c3n2)C1 (stereo not drawn)	113 °C
Cc1ccccc1-c1nsc(S(=O)(=O)N=CN2CCOCC2)n1	151 to 153 °C
Oc1nc2cc(Cl)ccc2n2cnnc12	> 300 °C
O=C(c1ccc(F)cc1)N1CCC[C@H](c2nc(-c3ccncc3)no2)C1	113 to 115 °C
COC(=O)C1CCC2(C)C(=CC(=O)C3C2CCC2(C)C(C(=O)OC)CCC32)C1 (stereo not drawn)	167 to 169 °C
CC(C)Cc1nc2ccc(C(N)=O)cc2c(-c2ccccc2)c1CN	128 to 129 °C
C/C=C/c1c(N)nc(-c2ccc(Cl)c(OC)c2F)nc1C(=O)OC	133 to 135 °C
COC(=O)Nc1nc2ccc(Sc3ccccc3)cn2c1Br	165 to 168 °C
CCc1ccc(Nc2nc3cc(NC(=O)c4cc([N+](=O)[O-])ccc4Cl)ccc3o2)cc1	> 250 °C
Oc1nc2cc(Cl)c3nc(C(F)(F)F)[nH]c3c2nc1O	> 300 °C
CS(=O)(=O)N(Cc1cccnc1)c1ccc(Oc2ccccc2)cc1	139 to 140 °C
CN(C(C(=O)NO)C(C)(C)CN1C(=O)c2ccccc2C1=O)S(=O)(=O)c1ccc(Oc2ccccc2)cc1 (stereo not drawn)	189 to 190 °C
N#Cc1ccc(COc2cccc(C(=O)Nc3ccc(C#N)cc3)c2)cc1	205 to 207 °C
CN(C)C(=S)C1CC(C)(C)Oc2ccc([N+](=O)[O-])cc21 (stereo not drawn)	158 to 160 °C
CCNCC1CCN(c2cc3c(cc2F)c(=O)c(C(=O)O)cn3CC)C1 (stereo not drawn)	248 to 252 °C
Oc1ccccc1CNCc1cccc(CNCc2ccccc2O)c1	61 to 63 °C
CC(=O)OCCCNc1cc(C)nc2cn[nH]c12	115 to 119 °C
CN1C(=O)N2CCOC2(c2ccccc2)c2cc([N+](=O)[O-])ccc21 (stereo not drawn)	136 °C
FC(F)(F)c1cccc(Nc2nccc(-c3ccncc3)n2)c1	197 to 198 °C
Cc1cc(C)c(CC(=O)N(C)CC(=O)O)c(C)c1	140 °C
COc1ccc2c(c1)C(=NO)CCCO2	103 to 104 °C

SMILES	melting point
CC1(C)CC(=C(c2ccc(O)cc2)c2ccc(C(N)=O)cc2)CC(C)(C)C1	209 to 210 °C
Cc1cc(C(=O)NC(=N)N)no1	192 °C
O=C(O)COc1cccc2c1CCC(CCn1cnc(-c3ccccc3)c1-c1ccccc1)C2 (stereo not drawn)	197 °C
CCOC(=O)Nc1ccc(Br)cc1F	72 to 73 °C
O=[N+]([O-])c1ccc2c(ccn2Cc2ccncc2)c1	134 to 136 °C
N[C@@H](Cc1ccc(C(F)(F)F)c(F)c1)[C@H](O)c1ccc(F)cc1 (racemic)	86 to 87 °C
Cc1ccccc1C(=O)Nc1ccc(C(=O)N2CCS(=O)c3ccccc32)cc1 (stereo not drawn)	240 to 241 °C
CCCn1nc2c(N)nc3ccccc3c2c1CC(C)(C)NC(=O)c1ccc(F)cc1	168 to 169 °C
Cc1cc(NC(=O)C2(C)CC2)ccc1OC(C)C	99 to 101 °C
COC(=O)c1c(F)c(F)c(F)c(F)c1C(=O)OC	68 to 70 °C
N#CCC(=O)c1cc(F)c(Cl)cc1Cl	98 to 99 °C
Cc1cccc(NC(=O)NCC(=O)N(CC(=O)N(C)c2cccc(C)c2)c2ccccc2)c1	165 °C
COC(=O)c1sccc1S(=O)(=O)Nc1onc(C)c1C	113 to 116 °C
Clc1ccnc2cc3c(cc12)OCO3	130 to 132 °C
CCOC(=O)c1cc(=O)c2c(OCC(O)COc3ccc(C#N)cc3)cccc2o1 (stereo not drawn)	137 to 139 °C
CCOC(=O)C1(CC(=O)Nc2cccnc2)N=C(c2ccc(Cl)cc2)c2c(sc(C)c2C)-n2c(C)nnc21 (stereo not drawn)	133 to 135 °C
CN1CCN(C(=O)c2ccc(-c3cnc4c(c3)N(Cc3ccccc3)CCN4)cc2)CC1	180 to 181 °C
CC(C)C[C@H](NC(=O)C(CS)C(F)(F)F)C(=O)O (stereo partly drawn)	132 to 134 °C
O=c1[nH]c(CCl)nc2cc3c(cc12)CCC3	270 to 272 °C
O=C(OC1CCCCC1)C(c1ccccc1)n1cnc2[nH]ncc2c1=S (stereo not drawn)	170 to 173 °C
CSc1nn(-c2c(Cl)cc(C(F)(F)F)cc2Cl)c(C)c1C(=O)c1cccc(C)c1	103 to 104 °C
CCCCc1nc(SCC)c(C(=O)O)n1Cc1ccc(C(=O)O)cc1	168 °C
CCN(CC)CCNC(=O)c1cnc(-c2ccccc2)nc1Cl	40 to 45 °C
